Reference: PubChem BioAssay (NCI)
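All cell lines were grown in 96-well plates and treated with compound for 48 hours. At the GI50, growth is halved. TGI is the concentration that stops growth completely.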

Assays:
Test in all cases: growth of human tumour cells (NCI), 48 h
[1] = tested on: LOX IMVI melanoma
[2] = tested on: TK-10 renal
[3] = tested on: CCRF-CEM leukemia
[4] = tested on: SK-MEL-5 melanoma
[5] = tested on: MALME-3M melanoma
[6] = tested on: ACHN renal
[7] = tested on: RXF-631 renal
[8] = tested on: LXFL 529 NSCLC
[9] = tested on: NCI-H226 lung
[10] = tested on: RXF 393 renal
[11] = tested on: COLO 205 colon
[12] = tested on: K-562 leukemia
[13] = tested on: NCI-H23 lung
[14] = tested on: A498 renal
[15] = tested on: UACC-257 melanoma
[16] = tested on: CAKI-1 renal
[17] = tested on: 786-0 renal
[18] = tested on: UACC-62 melanoma
[19] = tested on: HL-60(TB) leukemia
[20] = tested on: M19-MEL melanoma
[21] = tested on: OVCAR-8 ovarian
[22] = tested on: HT29 colon
[23] = tested on: IGROV1 ovarian
[24] = tested on: KM12 colon
[25] = tested on: SF-539 CNS
[26] = tested on: SNB-78 CNS
[27] = tested on: MOLT-4 leukemia
[28] = tested on: SF-295 CNS
[29] = tested on: UO-31 renal
[30] = tested on: SF-268 CNS
[31] = tested on: KM20L2 colon
[32] = tested on: SW-620 colon
[33] = tested on: HOP-62 NSCLC
[34] = tested on: HCT-15 colon
[35] = tested on: HOP-18 NSCLC
[36] = tested on: OVCAR-5 ovarian
[37] = tested on: EKVX NSCLC
[38] = tested on: HCT-116 colon
[39] = tested on: DMS 273 small cell lung
[40] = tested on: M14 melanoma
[41] = tested on: SNB-75 CNS
[42] = tested on: NCI-H460 lung
[43] = tested on: HCC-2998 colon
[44] = tested on: HOP-92 NSCLC
[45] = tested on: OVCAR-3 ovarian
[46] = tested on: SN12C renal
[47] = tested on: SNB-19 CNS
[48] = tested on: OVCAR-4 ovarian
[49] = tested on: A549 NSCLC
[50] = tested on: DMS 114 small cell lung
[51] = tested on: SK-MEL-28 melanoma
[52] = tested on: RPMI-8226 leukemia
[53] = tested on: SK-OV-3 ovarian
[54] = tested on: SK-MEL-2 melanoma
[55] = tested on: NCI-H522 lung
[56] = tested on: DLD-1 colon
[57] = tested on: U251 CNS
[58] = tested on: XF 498 CNS

SMILES: COc1ccc(C[C@]23CCC(=O)N2CCc2cc(OC)c(O)cc23)cc1O
- TGI [1]: > 100 µM
- TGI [2]: > 100 µM
- TGI [3]: > 100 µM
- TGI [4]: > 100 µM
- TGI [5]: > 100 µM
- TGI [6]: > 100 µM
- TGI [7]: > 100 µM
- TGI [8]: > 100 µM
- TGI [9]: > 100 µM
- TGI [10]: > 100 µM
- TGI [11]: > 100 µM
- TGI [12]: > 100 µM
- TGI [13]: > 100 µM
- TGI [14]: > 100 µM
- TGI [15]: > 100 µM
- TGI [16]: > 100 µM
- TGI [17]: > 100 µM
- TGI [18]: > 100 µM
- TGI [19]: > 100 µM
- TGI [20]: > 100 µM
- TGI [21]: 78.6 µM
- TGI [22]: > 100 µM
- TGI [23]: > 100 µM
- TGI [24]: > 100 µM
- TGI [25]: > 100 µM
- TGI [26]: > 100 µM
- TGI [27]: > 100 µM
- TGI [28]: > 100 µM
- TGI [29]: > 100 µM
- TGI [30]: > 100 µM
- TGI [31]: > 100 µM
- TGI [32]: > 100 µM
- TGI [33]: > 100 µM
- TGI [34]: > 100 µM
- TGI [35]: > 100 µM
- TGI [36]: > 100 µM
- TGI [37]: > 100 µM
- TGI [38]: > 100 µM
- TGI [39]: > 100 µM
- TGI [40]: > 100 µM
- TGI [41]: > 100 µM
- TGI [42]: > 100 µM
- TGI [43]: > 100 µM
- TGI [44]: > 100 µM
- TGI [45]: > 100 µM
- TGI [46]: > 100 µM
- TGI [47]: > 100 µM
- TGI [48]: > 100 µM
- TGI [49]: > 100 µM
- TGI [50]: > 100 µM
- TGI [51]: > 100 µM
- TGI [52]: > 100 µM

SMILES: [Co].[O-]c1cccnc1C=Nc1ccccc1.[OH3+]
- GI50 [1]: > 100 µM
- TGI [1]: > 100 µM
- GI50 [2]: > 100 µM
- TGI [2]: > 100 µM
- GI50 [3]: > 100 µM
- TGI [3]: > 100 µM
- GI50 [4]: > 100 µM
- TGI [4]: > 100 µM
- GI50 [5]: > 100 µM
- TGI [5]: > 100 µM
- GI50 [6]: 79.9 µM
- TGI [6]: > 100 µM
- GI50 [53]: > 100 µM
- TGI [53]: > 100 µM
- GI50 [8]: 47.2 µM
- TGI [8]: > 100 µM
- GI50 [11]: > 100 µM
- TGI [11]: > 100 µM
- GI50 [12]: 45.8 µM
- TGI [12]: > 100 µM
- GI50 [13]: > 100 µM
- TGI [13]: > 100 µM
- GI50 [14]: > 100 µM
- TGI [14]: > 100 µM
- GI50 [15]: > 100 µM
- TGI [15]: > 100 µM
- GI50 [17]: > 100 µM
- TGI [17]: > 100 µM
- GI50 [18]: 86.1 µM
- TGI [18]: > 100 µM
- GI50 [19]: 21.8 µM
- TGI [19]: > 100 µM
- GI50 [20]: > 100 µM
- TGI [20]: > 100 µM
- GI50 [21]: > 100 µM
- TGI [21]: > 100 µM
- GI50 [22]: > 100 µM
- TGI [22]: > 100 µM
- GI50 [23]: > 100 µM
- TGI [23]: > 100 µM
- GI50 [54]: > 100 µM
- TGI [54]: > 100 µM
- GI50 [24]: > 100 µM
- TGI [24]: > 100 µM
- GI50 [25]: > 100 µM
- TGI [25]: > 100 µM
- GI50 [26]: > 100 µM
- TGI [26]: > 100 µM
- GI50 [27]: 78.3 µM
- TGI [27]: > 100 µM
- GI50 [29]: 56.2 µM
- TGI [29]: > 100 µM
- GI50 [30]: 99.3 µM
- TGI [30]: > 100 µM
- GI50 [31]: > 100 µM
- TGI [31]: > 100 µM
- GI50 [32]: > 100 µM
- TGI [32]: > 100 µM
- GI50 [34]: 50.4 µM
- TGI [34]: > 100 µM
- GI50 [55]: 39.3 µM
- TGI [55]: > 100 µM
- GI50 [36]: > 100 µM
- TGI [36]: > 100 µM
- GI50 [56]: 90.7 µM
- TGI [56]: > 100 µM
- GI50 [37]: > 100 µM
- TGI [37]: > 100 µM
- GI50 [57]: > 100 µM
- TGI [57]: > 100 µM
- GI50 [38]: > 100 µM
- TGI [38]: > 100 µM
- GI50 [39]: > 100 µM
- TGI [39]: > 100 µM
- GI50 [40]: > 100 µM
- TGI [40]: > 100 µM
- GI50 [41]: 49.7 µM
- TGI [41]: > 100 µM
- GI50 [42]: > 100 µM
- TGI [42]: > 100 µM
- GI50 [58]: > 100 µM
- TGI [58]: > 100 µM
- GI50 [44]: 28.7 µM
- TGI [44]: > 100 µM
- GI50 [45]: > 100 µM
- TGI [45]: > 100 µM
- GI50 [46]: > 100 µM
- TGI [46]: > 100 µM
- GI50 [47]: > 100 µM
- TGI [47]: > 100 µM
- GI50 [48]: > 100 µM
- TGI [48]: > 100 µM
- GI50 [49]: > 100 µM
- TGI [49]: > 100 µM
- GI50 [50]: > 100 µM
- TGI [50]: > 100 µM
- GI50 [51]: 82.6 µM
- TGI [51]: > 100 µM
- GI50 [52]: > 100 µM
- TGI [52]: > 100 µM

SMILES: C/C(=C\C(C[C@](C)(O)C(O)CCC#C[Si](C)(C)C)S(=O)(=O)c1ccccc1)CC/C=C/CO[Si](C)(C)C(C)(C)C (some centres undefined)
- TGI [1]: 28.7 µM
- TGI [2]: 37.7 µM
- TGI [3]: 28.9 µM
- TGI [4]: 28.1 µM
- TGI [5]: 40.4 µM
- TGI [6]: 29.6 µM
- TGI [53]: 40.3 µM
- TGI [7]: 23.9 µM
- TGI [9]: 38.8 µM
- TGI [10]: 31.3 µM
- TGI [12]: 29 µM
- TGI [13]: 41.9 µM
- TGI [14]: 31.9 µM
- TGI [15]: 32.5 µM
- TGI [16]: 33 µM
- TGI [17]: 31.5 µM
- TGI [18]: 33.9 µM
- TGI [19]: 33.2 µM
- TGI [20]: 32.5 µM
- TGI [21]: 33.6 µM
- TGI [22]: 12.7 µM
- TGI [23]: 41 µM
- TGI [54]: 44.1 µM
- TGI [24]: 32.6 µM
- TGI [25]: 37 µM
- TGI [26]: 35.6 µM
- TGI [27]: 23.1 µM
- TGI [28]: 31.1 µM
- TGI [29]: 36.4 µM
- TGI [31]: 24 µM
- TGI [32]: 35.3 µM
- TGI [33]: 39.2 µM
- TGI [34]: 34.4 µM
- TGI [55]: 33 µM
- TGI [36]: 26.9 µM
- TGI [56]: 48.2 µM
- TGI [37]: 38.4 µM
- TGI [57]: 26.5 µM
- TGI [38]: 26.6 µM
- TGI [39]: 30.6 µM
- TGI [40]: 34 µM
- TGI [42]: 27 µM
- TGI [58]: 26.2 µM
- TGI [43]: 40.6 µM
- TGI [44]: 25.5 µM
- TGI [45]: 29.6 µM
- TGI [46]: 19 µM
- TGI [47]: 41.6 µM
- TGI [48]: 27.9 µM
- TGI [49]: 30.2 µM
- TGI [50]: 32.9 µM
- TGI [52]: 31.6 µM
